Here are results for 25 compounds from patent publication US8962608B2, “Cycloalkylnitrile pyrazole carboxamides as janus kinase inhibitors” (Merck Sharp & Dohme Corp., priority 2011, dated 2015).

The IC50 is the concentration at which inhibition is half-maximal.
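Also: biochemical assay with HTRF read-out.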

Sequence of JAK1 (recombinant purified GST-tagged catalytic domain) (P23458 875-1153): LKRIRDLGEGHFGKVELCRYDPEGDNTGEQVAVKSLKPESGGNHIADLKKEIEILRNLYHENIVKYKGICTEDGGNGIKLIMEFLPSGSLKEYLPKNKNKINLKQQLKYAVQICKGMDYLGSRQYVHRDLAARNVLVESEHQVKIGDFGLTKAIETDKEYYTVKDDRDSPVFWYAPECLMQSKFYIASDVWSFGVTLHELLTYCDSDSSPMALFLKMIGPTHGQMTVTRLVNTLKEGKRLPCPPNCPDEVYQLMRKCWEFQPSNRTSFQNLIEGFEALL

This experiment has as its target JAK1 (recombinant purified GST-tagged catalytic domain) (Homo sapiens (Human), UniProt P23458). The experiment can be described thus: biochemical.
On to `C[C@](O)(c1ccc(Nc2nn([C@H]3CCCC[C@@H]3C#N)cc2C(N)=O)cn1)C(F)F` (single isomer, unassigned) [Example 17-39, 1-[(1S,2S or 1R,2R)-2-cyanocyclohexyl]-3-({6-[(1S or 1R)-2,2-difluoro-1-hydroxy-1-methylethyl]pyridin-3-yl}amino)-1H-pyrazole-4-carboxamide], for which the IC50 came to 1 nM.

For `N#C[C@H]1CCCC[C@@H]1n1cc(C(N)=O)c(Nc2ccc([C@@H](O)C(F)(F)F)nc2)n1` (single isomer, unassigned) [Example 17-46, 1-[(1S,2S or 1R,2R)-2-cyanocyclohexyl]-3-({6-[(1R or 1S)-2,2,2-trifluoro-1-hydroxyethyl]pyridin-3-yl}amino)-1H-pyrazole-4-carboxamide], the half-maximal inhibitory concentration (IC50) is 0.35 nM.

`N#C[C@H]1CCCC[C@@H]1n1cc(C(N)=O)c(Nc2ccc([C@H](O)C(F)(F)F)nc2)n1` (single isomer, unassigned) [Example 17-50, 1-[(1S,2S or 1R,2R)-2-cyanocyclohexyl]-3-({6-[(1S or 1R)-2,2,2-trifluoro-1-hydroxyethyl]pyridin-3-yl}amino)-1H-pyrazole-4-carboxamide]: the 50% inhibitory concentration (IC50) came to 0.2 nM.

Turning to `N#C[C@H]1CCCC[C@@H]1n1cc(C(N)=O)c(Nc2cc(F)cc(Cl)c2)n1` (single isomer, unassigned) [Example 17-51, 3-[(3-chloro-5-fluorophenyl)amino]-1-[(1S,2S or 1R,2R)-2-cyanocyclohexyl]-1H-pyrazole-4-carboxamide], the IC50 was determined as 7 nM.

For `CC(C)(C(=O)NCC(F)(F)F)c1ccc(Nc2nn([C@H]3CCCC[C@@H]3C#N)cc2C(N)=O)cc1` (single isomer, unassigned) [Example 17-57, 1-[(1S,2S or 1R,2R)-2-cyanocyclohexyl]-3-[(4-{1,1-dimethyl-2-oxo-2-[(2,2,2-trifluoroethyl)amino]ethyl}phenyl)amino]-1H-pyrazole-4-carboxamide], the IC50 came out at 0.2 nM.

Consider `COC(=O)c1ccc(Nc2nn([C@H]3CCCC[C@@H]3C#N)cc2C(N)=O)cn1` (single isomer, unassigned) [Example 17-70, methyl 5-({4-carbamoyl-1-[(1R,2R or 1S,2S)-2-cyanocyclohexyl]-1H-pyrazol-3-yl}amino)pyridine-2-carboxylate], for which the IC50 worked out at 3 nM.

For the compound `CC(C)(C)NC(=O)c1cncc(Nc2nn([C@H]3CCCC[C@@H]3C#N)cc2C(N)=O)c1` (single isomer, unassigned) [Example 17-71, N-tert-butyl-5-({4-carbamoyl-1-[(1R,2R or 1S,2S)-2-cyanocyclohexyl]-1H-pyrazol-3-yl}amino)pyridine-3-carboxamide], the IC50 amounted to 60 nM.

Consider `CC(C)NS(=O)(=O)c1ccc(Nc2nn([C@H]3CCCC[C@@H]3C#N)cc2C(N)=O)cc1` (single isomer, unassigned) [Example 17-93, 1-[(1R,2R or 1S,2S)-2-cyanocyclohexyl]-3-({4-[(1-methylethyl)sulfamoyl]phenyl}amino)-1H-pyrazole-4-carboxamide], for which the IC50 was 0.3 nM.

For `N#C[C@H]1CCCC[C@@H]1n1cc(C(N)=O)c(Nc2ccc(OC(F)F)cc2)n1` (single isomer, unassigned) [Example 17-103, 1-[(1S,2S or 1R,2R)-2-cyanocyclohexyl]-3-{[4-(difluoromethoxy)phenyl]amino}-1H-pyrazole-4-carboxamide], the half-inhibitory concentration (IC50) was 0.7 nM.

Take `N#C[C@H]1CCCC[C@@H]1n1cc(C(N)=O)c(Nc2ccc(C(F)(F)F)cc2)n1` (single isomer, unassigned) [Example 17-105, 1-[(1S,2S or 1R,2R)-2-cyanocyclohexyl]-3-{[4-(trifluoromethyl)phenyl]amino}-1H-pyrazole-4-carboxamide]: the IC50 was found to be 2 nM.

With `N#C[C@H]1C[C@H](O)CC[C@@H]1n1cc(C(N)=O)c(Nc2ccc(Cl)c(F)c2)n1` (single isomer, unassigned) [Example 25-3, 3-[(4-chloro-3-fluorophenyl)amino]-1-[(1S,2S,4R or 1R,2R,4S)-2-cyano-4-hydroxycyclohexyl]-1H-pyrazole-4-carboxamide], the half-maximal inhibitory concentration (IC50) amounted to 1 nM.

On to `CC(C)(CF)c1ccc(Nc2nn([C@H]3CC[C@@H](O)C[C@@H]3C#N)cc2C(N)=O)cc1` (single isomer, unassigned) [Example 25-9, 1-[(1S,2S,4R or 1R,2R,4S)-2-cyano-4-hydroxycyclohexyl]-3-{[4-(2-fluoro-1,1-dimethylethyl)phenyl]amino}-1H-pyrazole-4-carboxamide], for which the 50% inhibitory concentration (IC50) was 1 nM.

As for `COC(C)(C)c1ccc(Nc2nn([C@H]3CC[C@@H](O)C[C@@H]3C#N)cc2C(N)=O)cc1` (single isomer, unassigned) [Example 25-11, 1-[(1S,2S,4R or 1R,2R,4S)-2-cyano-4-hydroxycyclohexyl]-3-{[4-(1-methoxy-1-methylethyl)phenyl]amino}-1H-pyrazole-4-carboxamide], the IC50 came to 0.45 nM.

For the compound `N#C[C@H]1C[C@H](O)CCC1n1cc(C(N)=O)c(Nc2ccnc(F)c2)n1` (single isomer, unassigned) [Example 25-21, 1-[(1S,2S,4R or 1R,2R,4S)-2-cyano-4-hydroxycyclohexyl]-3-[(2-fluoropyridin-4-yl)amino]-1H-pyrazole-4-carboxamide], the IC50 amounted to 1 nM.

Turning to `N#C[C@H]1C[C@H](O)CCC1n1cc(C(N)=O)c(Nc2ccnc(F)c2)n1` (single isomer, unassigned) [Example 25-25, 1-[(1S,2S,4R or 1R,2R,4S)-2-cyano-4-hydroxycyclohexyl]-3-[2-fluoropyridin-4-yl)amino]-1H-pyrazole-4-carboxamide], the concentration for half-maximal inhibition (IC50) stood at 15 nM.

Consider `CN([C@H]1CC[C@H](n2cc(C(N)=O)c(Nc3ccc(Cl)cc3)n2)[C@@H](C#N)C1)C(C)(C)C` (single isomer, unassigned) [Example 28-6, 1-((1S,2S,4S or 1R,2R,4R)-4-(tert-butyl(methyl)amino)-2-cyanocyclohexyl)-3-((4-chlorophenyl)amino)-1H-pyrazole-4-carboxamide], for which the IC50 was found to be 0.55 nM.

Regarding `C[C@@H]1C[C@@H](C)N1[C@H]1CC[C@H](n2cc(C(N)=O)c(Nc3ccc(C(F)(F)F)cc3)n2)[C@@H](C#N)C1` (single isomer, unassigned) [Example 28-9, 1-{(1S,2S,4S or 1R,2R,4R)-2-cyano-4-[(2R,4R or 2S,4S)-2,4-dimethylazetidin-1-yl]cyclohexyl}-3-{[4-(trifluoromethyl)phenyl]amino}-1H-pyrazole-4-carboxamide], the IC50 turned out to be 2 nM.

Turning to `C[C@H](N[C@@H]1CC[C@H](n2cc(C(N)=O)c(Nc3ccc(OC(F)F)nc3)n2)[C@@H](C#N)C1)C1CC1` (single isomer, unassigned) [Example 28-13, 1-[(1S,2S,4R or 1R,2R,4S)-2-cyano-4-{[(1S)-1-cyclopropylethyl]amino}cyclo-hexyl]-3-{[6-(difluoromethoxy)pyridin-3-yl]amino}-1H-pyrazole-4-carboxamide], the half-maximal inhibitory concentration (IC50) is 11 nM.

As to `N#C[C@H]1C[C@@H](N2CC3(CCC3)C2)CC[C@@H]1n1cc(C(N)=O)c(Nc2ccc(C(F)(F)F)cc2)n1` (single isomer, unassigned) [Example 28-17, 1-[(1S,2S,4S or 1R,2R,4R)-4-(2-azaspiro[3.3]hept-2-yl)-2-cyanocyclohexyl]-3-{[4-(trifluoromethyl)phenyl]amino}-1H-pyrazole-4-carboxamide], the IC50 was 2 nM.

`C[C@H]1C[C@H](C)N1[C@@H]1CC[C@H](n2cc(C(N)=O)c(Nc3ccc(C(F)(F)F)cc3)n2)[C@@H](C#N)C1` (single isomer, unassigned) [Example 28-20, 1-{(1S,2S,4R or 1R,2R,4S)-2-cyano-4-[(2S,4S or 2R,4R)-2,4-dimethylazetidin-1-yl]cyclohexyl}-3-{[4-(trifluoromethyl)phenyl]amino}-1H-pyrazole-4-carboxamide]: the IC50 came to 5 nM.

As to `C[C@H]1C[C@H](C)N1[C@H]1CC[C@H](n2cc(C(N)=O)c(Nc3ccc(C(F)(F)F)cc3)n2)[C@@H](C#N)C1` (single isomer, unassigned) [Example 28-21, 1-{(1S,2S,4S or 1R,2R,4R)-2-cyano-4-[(2S,4S or 2R,4R)-2,4-dimethylazetidin-1-yl]cyclohexyl}-3-{[4-(trifluoromethyl)phenyl]amino}-1H-pyrazole-4-carboxamide], the half-maximal inhibitory concentration (IC50) was found to be 3 nM.

For the compound `N#C[C@H]1C[C@H](N2CC3(CCC3)C2)CC[C@@H]1n1cc(C(N)=O)c(Nc2ccc(C(F)(F)F)cc2)n1` (single isomer, unassigned) [Example 28-24, 1-[(1S,2S,4R or 1R,2R,4S)-4-(2-azaspiro[3.3]hept-2-yl)-2-cyanocyclohexyl]-3-{[4-(trifluoromethyl)phenyl]amino}-1H-pyrazole-4-carboxamide], the IC50 is 0.6 nM.

Consider `C[C@@H]1C[C@@H](C)N1[C@@H]1CC[C@H](n2cc(C(N)=O)c(Nc3ccc(C(F)(F)F)cc3)n2)[C@@H](C#N)C1` (single isomer, unassigned) [Example 28-30, 1-{(1S,2S,4R or 1R,2R,4S)-2-cyano-4-[(2R,4R or 2S,4S)-2,4-dimethylazetidin-1-yl]cyclohexyl}-3-{[4-(trifluoromethyl)phenyl]amino}-1H-pyrazole-4-carboxamide], for which the IC50 came to 15 nM.

On to `C[C@H](N[C@H]1CC[C@H](n2cc(C(N)=O)c(Nc3ccc(OC(F)F)nc3)n2)[C@@H](C#N)C1)C1CC1` (single isomer, unassigned) [Example 28-32, 1-[(1S,2S,4S or 1R,2R,4R)-2-cyano-4-{[(1S)-1-cyclopropylethyl]amino}cyclo-hexyl]-3-{[6-(difluoromethoxy)pyridin-3-yl]amino}-1H-pyrazole-4-carboxamide], for which the IC50 was determined as 5 nM.

For the compound `N#C[C@H]1C[C@H](N2CCC2)CC[C@@H]1n1cc(C(N)=O)c(Nc2ccc(CC(F)(F)F)cc2)n1` (single isomer, unassigned) [Example 28-53, 1-[(1S,2S,4R or 1R,2R,4S)-4-azetidin-1-yl-2-cyanocyclohexyl]-3-{[4-(2,2,2-trifluoroethyl)phenyl]amino}-1H-pyrazole-4-carboxamide], the IC50 is 0.4 nM.
